Data: patent US9980943B2, “Methods of treating muscular dystrophy” (BOARD OF REGENTS OF THE NEVADA SYSTEM OF HIGHER EDUCATION, …, priority 2013, dated 2018)

Tests used:
Format in all cases: cell-based, mouse
[1] = system: α7 integrin (LacZ reporter in α7βgal+/− myoblasts); assay: Myoblast α7+/LacZ integrin FDG assay (Burkin assay in myoblasts, 96-well); conditions: α7+/LacZ myoblasts, 96-well
[2] = system: α7 integrin (LacZ reporter in α7+/LacZ myotubes); assay: Myotube α7 integrin FDG assay (Burkin assay in myotubes, 96-well); conditions: myotubes
[3] = system: β-galactosidase in CMV-LacZ C2C12 myotubes; assay: CMV-LacZ secondary screen in C2C12 myotubes (β-Gal stabilizing assay); conditions: C2C12 CMV-LacZ myotubes, fold relative to DMSO
In short: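 β-gal stabilization was measured in C2C12 myoblasts or myotubes stably transfected with a CMV-driven LacZ construct, using the FDG β-gal assay. Compounds were tested in dose-response at 0.5, 1, 5, 10, 20 and 40 μM, with two replicates per point.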

Compound | Burkin Assay in Myoblasts, signal relative to DMSO ([1]; 0.5 uM) | Burkin Assay in Myoblasts, signal relative to DMSO ([1]; 1 uM) | Burkin Assay in Myoblasts, signal relative to DMSO ([1]; 5 uM) | Burkin Assay in Myoblasts, signal relative to DMSO ([1]; 10 uM) | Burkin Assay in Myoblasts, signal relative to DMSO ([1]; 20 uM) | Burkin Assay in Myoblasts, signal relative to DMSO ([1]; 40 uM) | Burkin Assay in Myotubes, α7 integrin LacZ reporter signal relative to DMSO ([2]; 0.5 uM) | Burkin Assay in Myotubes, α7 integrin LacZ reporter signal relative to DMSO ([2]; 1 uM) | Burkin Assay in Myotubes, α7 integrin LacZ reporter signal relative to DMSO ([2]; 5 uM) | Burkin Assay in Myotubes, α7 integrin LacZ reporter signal relative to DMSO ([2]; 10 uM) | Burkin Assay in Myotubes, α7 integrin LacZ reporter signal relative to DMSO ([2]; 20 uM) | Burkin Assay in Myotubes, α7 integrin LacZ reporter signal relative to DMSO ([2]; 40 uM) | CMV-LACZ in Myotubes, signal relative to DMSO ([3]; 5 uM) | CMV-LACZ in Myotubes, signal relative to DMSO ([3]; 10 uM) | CMV-LACZ in Myotubes, signal relative to DMSO ([3]; 20 uM) | CMV-LACZ in Myotubes, signal relative to DMSO ([3]; 40 uM) | Burkin Assay in Myoblasts, value relative to DMSO ([1]; 0.5 uM) | Burkin Assay in Myoblasts, value relative to DMSO ([1]; 1 uM) | Burkin Assay in Myoblasts, value relative to DMSO ([1]; 5 uM) | Burkin Assay in Myoblasts, value relative to DMSO ([1]; 10 uM) | other results
Cn1c(=O)c2c(nc(Sc3ncnn3CC(=O)NC3CCCCC3)n2C)n(C)c1=O [MLS000663651-01] | 1.143 | 1.059 | 0.9834 | 0.9551 | 0.9504 | 1.048 | 0.946 | 0.9099 | 1.106 | 1.007 | 1.017 | 0.9648 | 0.9636 | 0.9788 | 0.949 | 0.861 | – | – | – | – | –
CCCCNS(=O)(=O)c1ccc2nc(-c3cccnc3)cc(C(=O)NCCOC)c2c1 [MLS000673766-01] | – | – | – | – | – | – | – | – | – | – | – | – | 0.9847 | 0.9632 | 1.11 | 1.04 | 1.02 | 1.061 | 0.928 | 1.0253 | Burkin Assay in Myoblasts, value relative to DMSO ([1]; 20 uM): 0.91; Burkin Assay in Myoblasts, value relative to DMSO ([1]; 40 uM): 0.9919; Burkin Assay in Myotubes (signal relative to DMSO) ([2]; 0.5 uM): 0.968; Burkin Assay in Myotubes (signal relative to DMSO) ([2]; 1 uM): 0.9862; Burkin Assay in Myotubes (signal relative to DMSO) ([2]; 5 uM): 0.896; Burkin Assay in Myotubes (signal relative to DMSO) ([2]; 10 uM): 0.9276; Burkin Assay in Myotubes (signal relative to DMSO) ([2]; 20 uM): 0.8272; Burkin Assay in Myotubes (signal relative to DMSO) ([2]; 40 uM): 0.8717
O=Cc1cn(Cc2ccc(F)cc2Cl)c2ccccc12 [MLS000676974-01] | – | – | – | – | – | – | – | – | – | – | – | – | 1.077 | 0.4574 | 1.083 | 0.46 | 1.105 | 1.137 | 0.99 | 1.099 | Burkin Assay in Myoblasts, value relative to DMSO ([1]; 20 uM): 0.6673; Burkin Assay in Myoblasts, value relative to DMSO ([1]; 40 uM): 0.5184; Burkin Assay in Myotubes (signal relative to DMSO) ([2]; 0.5 uM): 0.9171; Burkin Assay in Myotubes (signal relative to DMSO) ([2]; 1 uM): 0.9021; Burkin Assay in Myotubes (signal relative to DMSO) ([2]; 5 uM): 0.7009; Burkin Assay in Myotubes (signal relative to DMSO) ([2]; 10 uM): 0.5994; Burkin Assay in Myotubes (signal relative to DMSO) ([2]; 20 uM): 0.9758; Burkin Assay in Myotubes (signal relative to DMSO) ([2]; 40 uM): 0.5447
O=c1oc2c(-c3cccc(F)c3)cc(O)cc2s1 [MLS000680049-01] | 0.9998 | 1.103 | 0.9693 | 0.9727 | 0.7493 | 0.6354 | 0.8875 | 1.056 | 1.047 | 1.22 | 0.8731 | 0.4379 | 1.127 | 1.106 | 1.4405 | 0.4315 | – | – | – | – | –
